19 compounds from patent publication US11192888B2, “Antibacterial compounds” (priority 2017, dated 2021) can be followed below.

Values after ≈ are worked out from the molar mass of the structure shown. Read-outs that look alike come from different tables or passages of the source. *1 amine or outer side, *2 acyl side, *3 side chain or, on linkers, in order; H or OH if unused. Where a SMILES comes first, the peptide text is derived from it. [ ]: non-standard residue; d: D form. dAla(ψthiazole) = C[C@@H](N[*:1])c1nc(C(=O)[*:2])cs1; Trp(4-Cl) = N[C@@H](Cc1c[nH]c2cccc(Cl)c12)C(=O)O; Dhb = C/C=C(\N)C(=O)O; Sar = CNCC(=O)O A value given as a limit tells only on which side of the number the result lay.

The conditions of data set [1]: amide bond, 24-membered ring, PyBOP/HOBt/DIPEA, 0.5 mM.
In data set [2] the test system is P. aeruginosa clinical strains and PAO1 (wild-type strain). The experiment in a line: Antibiotic sensitivity of P. aeruginosa clinical strains and PAO1 (MIC). The data set is classed as cell-based, Pseudomonas aeruginosa. The text has this:
In this regard, four clinical isolates of P. aeruginosa were obtained from the University of Nottingham.

The subject of data set [3] is Clostridium difficile strains (21 clinical, 7 reference).

Consider `C=C1NC(=O)[C@@H](C)NC(=O)CNC(=O)[C@H](Cc2c[nH]c3cccc(C(F)(F)F)c23)NC(=O)[C@H](Cc2c[nH]c3ccccc23)NC(=O)c2csc(n2)[C@@H](C)NC(=O)CN(C)C1=O` [Cyclo[D-Ala-Thz-Trp-Trp(4-CF3)-Gly-D-Ala-Dha-Sar]], for which the ring closure, yield after HPLC in data set [1] (from H-dAla-Thz-Trp-Trp(4-CF3)-Gly-dAla-Dha-Sar-OH?) was 6%.
In data set [1] (from H-dAla-Thz-Trp-Trp(4-F)-Gly-dAla-Dha-Sar-OH?), `C=C1NC(=O)[C@@H](C)NC(=O)CNC(=O)[C@H](Cc2c[nH]c3cccc(F)c23)NC(=O)[C@H](Cc2c[nH]c3ccccc23)NC(=O)c2csc(n2)[C@@H](C)NC(=O)CN(C)C1=O` [Cyclo[D-Ala-Thz-Trp-Trp(4-F)-Gly-D-Ala-Dha-Sar]] gave a ring closure, yield after HPLC of 2%.
For the compound `C[C@@H](O)[C@H]1C(=O)N2C(C(=O)O)=C(S[C@@H]3CN[C@H](C(=O)N(C)C)C3)[C@H](C)[C@H]12` [Meropenem], the MIC of antibiotic in data set [2] (strain PAO1) is >45 µM; in data set [2] (strain W4) it was >45 µM; in data set [2] (strain W14), 9 µM; in data set [2] (strain W23) it was >45 µM; in data set [2] (strain W46) it was 14 µM.
Turning to `C/C=C1\NC(=O)[C@@H](C)NC(=O)CNC(=O)[C@H](Cc2c[nH]c3cccc(Br)c23)NC(=O)[C@H](Cc2c[nH]c3ccccc23)NC(=O)c2csc(n2)[C@@H](C)NC(=O)CN(C)C1=O` [Cyclo[D-Ala-Thz-Trp-Trp(4-Br)-Gly-D-Ala-Dhb-Sar]], the ring closure, yield after HPLC in data set [1] (from H-dAla-Thz-Trp-Trp(4-Br)-Gly-dAla-Dhb-Sar-OH?) was found to be 35%.
Compound `CC(C)/C=C1\NC(=O)[C@@H](C)NC(=O)CNC(=O)[C@H](Cc2c[nH]c3cccc(Br)c23)NC(=O)[C@H](Cc2c[nH]c3ccccc23)NC(=O)c2csc(n2)[C@@H](C)NC(=O)CN(C)C1=O` [Cyclo[D-Ala-Thz-Trp-Trp(4-Br)-Gly-D-Ala-Dhl-Sar]] registered a ring closure, yield after HPLC in data set [1] (from H-dAla-Thz-Trp-Trp(4-Br)-Gly-dAla-Dhl-Sar-OH?) of 35%.
Take Colistin: the MIC of antibiotic in data set [2] (strain PAO1) is 3 µM; in data set [2] (strain W4), 3 µM; in data set [2] (strain W14) it was >8 µM; in data set [2] (strain W23), 2 µM; in data set [2] (strain W46), 2 µM.
As to `C[C@H]1[C@H](NC(=O)/C(=N\OC(C)(C)C(=O)O)c2csc(N)n2)C(=O)N1S(=O)(=O)O` [Aztreonam], the MIC of antibiotic in data set [2] (strain PAO1) was <9 µM; in data set [2] (strain W4), 18 µM; in data set [2] (strain W14), >92 µM; in data set [2] (strain W23), <9 µM; in data set [2] (strain W46), <9 µM.
Consider `C[C@H]1NC(=O)CNC(=O)[C@H](Cc2c[nH]c3cccc(Cl)c23)NC(=O)[C@H](Cc2c[nH]c3ccccc23)NC(=O)c2csc(n2)[C@@H](C)NC(=O)CN(C)C(=O)[C@H]([C@@H](C)O)NC1=O` [Cyclo[D-Ala-Thz-Trp-Trp(4-Cl)-Gly-D-Ala-Thr-Sar]], for which the ring closure, yield after HPLC in data set [1] (from H-dAla-Thz-Trp-Trp(4-Cl)-Gly-dAla-Thr-Sar-OH?) turned out to be 14%.
The compound `CC(C)=C1NC(=O)[C@@H](C)NC(=O)CNC(=O)[C@H](Cc2c[nH]c3cccc(Br)c23)NC(=O)[C@H](Cc2c[nH]c3ccccc23)NC(=O)c2csc(n2)[C@@H](C)NC(=O)CN(C)C1=O` [Cyclo[D-Ala-Thz-Trp-Trp(4-Br)-Gly-D-Ala-Dhv-Sar]] yielded a ring closure, yield after HPLC in data set [1] (from H-dAla-Thz-Trp-Trp(4-Br)-Gly-dAla-Dhv-Sar-OH?) of 42%.
Consider `C[C@H]1NC(=O)CNC(=O)[C@H](Cc2c[nH]c3cccc(Br)c23)NC(=O)[C@H](Cc2c[nH]c3ccccc23)NC(=O)c2csc(n2)[C@@H](C)NC(=O)CN(C)C(=O)/C(=C/c2ccccc2)NC1=O` [Cyclo[D-Ala-Thz-Trp-Trp(4-Br)-Gly-D-Ala-Dhp-Sar]], for which, in data set [1] (from H-dAla-Thz-Trp-Trp(4-Br)-Gly-dAla-Dhp-Sar-OH?), the ring closure, yield after HPLC is 35%.
The compound `C=C1NC(=O)[C@@H](C)NC(=O)CNC(=O)[C@H](Cc2c[nH]c3cccc(Cl)c23)NC(=O)[C@H](Cc2c[nH]c3ccccc23)NC(=O)c2csc(n2)[C@@H](C)NC(=O)CN(C)C1=O` [Cyclo[D-Ala-Thz-Trp-Trp(4-C1)-Gly-D-Ala-Dha-Sar]] showed a ring closure, yield after HPLC in data set [1] (from H-dAla-Thz-Trp-Trp(4-Cl)-Gly-dAla-Dha-Sar-OH?) of 5%.
Compound `C=C1NC(=O)[C@@H](C)NC(=O)CNC(=O)[C@H](Cc2c[nH]c3cccc(Cl)c23)NC(=O)[C@H](Cc2c[nH]c3ccccc23)NC(=O)c2csc(n2)[C@@H](CO)NC(=O)CN(C)C1=O` [Cyclo[D-Ser-Thz-Trp-Trp(4-C1)-Gly-D-Ala-Dha-Sar]] came in with a ring closure, yield after HPLC in data set [1] (from H-dSer-Thz-Trp-Trp(4-Cl)-Gly-dAla-Dha-Sar-OH?) of 4%.
Compound `C=C1NC(=O)[C@@H](C)NC(=O)CNC(=O)[C@H](Cc2c[nH]c3cccc(OC)c23)NC(=O)[C@H](Cc2c[nH]c3ccccc23)NC(=O)c2csc(n2)[C@@H](C)NC(=O)CN(C)C1=O` [Cyclo[D-Ala-Thz-Trp-Trp(4-MeO)-Gly-D-Ala-Dha-Sar]] came in with a ring closure, yield after HPLC in data set [1] (from H-dAla-Thz-Trp-Trp(4-MeO)-Gly-dAla-Dha-Sar-OH?) of 11%.
Gentamicin: the MIC of antibiotic in data set [2] (strain PAO1) is <4 µM; in data set [2] (strain W4) it was 8 µM; in data set [2] (strain W14), 8 µM; in data set [2] (strain W23) it was <4 µM; in data set [2] (strain W46), <4 µM.
On to `NCC[C@H](O)C(=O)N[C@@H]1C[C@H](N)[C@@H](O[C@H]2O[C@H](CN)[C@@H](O)[C@H](O)[C@H]2O)[C@H](O)[C@H]1O[C@H]1O[C@H](CO)[C@@H](O)[C@H](N)[C@H]1O` [Amikacin], for which the MIC of antibiotic in data set [2] (strain PAO1) is <14 µM; in data set [2] (strain W4) it was 24 µM; in data set [2] (strain W14) it was 41 µM; in data set [2] (strain W23), <14 µM; in data set [2] (strain W46) it was <14 µM.
Regarding `C/C=C1\NC(=O)[C@@H](C)NC(=O)CNC(=O)[C@H](Cc2c[nH]c3cccc(Cl)c23)NC(=O)[C@H](Cc2c[nH]c3ccccc23)NC(=O)c2csc(n2)[C@@H](C)NC(=O)CN(C)C1=O` [Cyclo[D-Ala-Thz-Trp-Trp(4-Cl)-Gly-D-Ala-Dhb-Sar]], in data set [1] (from H-dAla-Thz-Trp-Trp(4-Cl)-Gly-dAla-Dhb-Sar-OH?), the ring closure, yield after HPLC stood at 5%.
As to `C=C1NC(=O)[C@@H](C)NC(=O)CNC(=O)[C@H](Cc2c[nH]c3ccccc23)NC(=O)[C@H](Cc2c[nH]c3ccccc23)NC(=O)c2csc(n2)[C@@H](C)NC(=O)CN(C)C1=O` [Cyclo(D-Ala-D-Thiazole-L-Trp-L-Trp-Gly-D-Ala-Dha-Sar)], in data set [1] (from H-dAla-Thz-Trp-Trp-Gly-dAla-Dha-Sar-OH?, DCM), the ring closure, yield after HPLC is 7%.
In turn, `C/C=C1\NC(=O)[C@@H](C)NC(=O)CNC(=O)[C@H](Cc2c[nH]c3cccc(Cl)c23)NC(=O)[C@H](Cc2c[nH]c3ccccc23)NC(=O)c2csc(n2)[C@@H](C)NC(=O)CN(C)C1=O` [Compound 9, Cyclo[D-Ala-Thz-Trp-Trp(4-Cl)-Gly-D-Ala-Dhb-Sar]] (cyclo([Dhb][Sar][dAla(ψthiazole)]W[Trp(4-Cl)]G[dA])) returned an MIC40 in data set [3] (28 C. difficile strains) of 0.5 µg/mL (≈ 0.593 µM). The compound also had an MIC50 in data set [3] (28 C. difficile strains) of 0.50 µg/mL (≈ 0.593 µM). The same compound yielded an MIC90 in data set [3] (28 C. difficile strains) of 0.50 µg/mL (≈ 0.593 µM). For the same compound, the MIC in data set [3] (C. difficile strain 630 (ribotype 012)) came to 0.25 µg/mL (≈ 0.296 µM); in data set [3] (C. difficile strain ATCC 9689 (ribotype 001)) it was 0.5 µg/mL (≈ 0.593 µM); in data set [3] (C. difficile strain ATCC 13366) it was 1 µg/mL (≈ 1.19 µM); in data set [3] (C. difficile strain ATCC 43255), 0.25 µg/mL (≈ 0.296 µM); in data set [3] (C. difficile strain ATCC 700057 (ribotype 038)) it was 0.25 µg/mL (≈ 0.296 µM); in data set [3] (C. difficile strain ATCC BAA 1875 (ribotype 078)), 0.5 µg/mL (≈ 0.593 µM). In addition, the MIC in data set [3] (C. difficile strain BI1-FDX^R) worked out at 0.25 µg/mL (≈ 0.296 µM); in data set [3] (C. difficile strain Clin. 1), 0.5 µg/mL (≈ 0.593 µM); in data set [3] (C. difficile strain Clin. 2), 0.5 µg/mL (≈ 0.593 µM); in data set [3] (C. difficile strain Clin. 3), 0.25 µg/mL (≈ 0.296 µM); in data set [3] (C. difficile strain Clin. 5), 0.5 µg/mL (≈ 0.593 µM); in data set [3] (C. difficile strain Clin. 6), 0.5 µg/mL (≈ 0.593 µM). For the same compound, the MIC in data set [3] (C. difficile strain Clin. 7), in data set [3] (C. difficile strain Clin. 8), in data set [3] (C. difficile strain Clin. 9), in data set [3] (C. difficile strain Clin. 10), in data set [3] (C. difficile strain Clin. 11) and in data set [3] (C. difficile strain Clin. 12) was 0.5 µg/mL (≈ 0.593 µM) throughout. Besides, the minimum inhibitory concentration (MIC) in data set [3] (C. difficile strain Clin. 13) stood at 0.5 µg/mL (≈ 0.593 µM); in data set [3] (C. difficile strain Clin. 14) it was 0.5 µg/mL (≈ 0.593 µM); in data set [3] (C. difficile strain Clin. 15), 0.5 µg/mL (≈ 0.593 µM); in data set [3] (C. difficile strain Clin. 16), 0.25 µg/mL (≈ 0.296 µM); in data set [3] (C. difficile strain Clin. 18), 0.5 µg/mL (≈ 0.593 µM); in data set [3] (C. difficile strain Clin. 20), 0.5 µg/mL (≈ 0.593 µM). The MIC in data set [3] (C. difficile strain Clin. 21), in data set [3] (C. difficile strain Clin. 22), in data set [3] (C. difficile strain Clin. 23) and in data set [3] (C. difficile strain Clin. 24) was 0.5 µg/mL (≈ 0.593 µM) in each case.
For the compound `NC[C@H]1O[C@H](O[C@H]2[C@H](O)[C@@H](O[C@H]3O[C@H](CO)[C@@H](O)[C@H](N)[C@H]3O)[C@H](N)C[C@@H]2N)[C@H](N)C[C@@H]1O` [Tobramycin], the MIC of antibiotic in data set [2] (strain PAO1) is <4 µM; in data set [2] (strain W4), 9 µM; in data set [2] (strain W14) it was 25 µM; in data set [2] (strain W23), <4 µM; in data set [2] (strain W46), <4 µM.
